pEC50, pIC50: −log10 of the molar value. Values joined by “and” are separate entries in the source; they are usually repeats but may differ in a detail not shown here. Equal values may be shown once. Read-outs that look alike come from different tables or passages of the source.
What was measured:
[1] = molecular target: T1, human DNA polymerase γ (Homo sapiens, UniProt P54098); assay: biochemical
T1 sequence (P54098 1-1239): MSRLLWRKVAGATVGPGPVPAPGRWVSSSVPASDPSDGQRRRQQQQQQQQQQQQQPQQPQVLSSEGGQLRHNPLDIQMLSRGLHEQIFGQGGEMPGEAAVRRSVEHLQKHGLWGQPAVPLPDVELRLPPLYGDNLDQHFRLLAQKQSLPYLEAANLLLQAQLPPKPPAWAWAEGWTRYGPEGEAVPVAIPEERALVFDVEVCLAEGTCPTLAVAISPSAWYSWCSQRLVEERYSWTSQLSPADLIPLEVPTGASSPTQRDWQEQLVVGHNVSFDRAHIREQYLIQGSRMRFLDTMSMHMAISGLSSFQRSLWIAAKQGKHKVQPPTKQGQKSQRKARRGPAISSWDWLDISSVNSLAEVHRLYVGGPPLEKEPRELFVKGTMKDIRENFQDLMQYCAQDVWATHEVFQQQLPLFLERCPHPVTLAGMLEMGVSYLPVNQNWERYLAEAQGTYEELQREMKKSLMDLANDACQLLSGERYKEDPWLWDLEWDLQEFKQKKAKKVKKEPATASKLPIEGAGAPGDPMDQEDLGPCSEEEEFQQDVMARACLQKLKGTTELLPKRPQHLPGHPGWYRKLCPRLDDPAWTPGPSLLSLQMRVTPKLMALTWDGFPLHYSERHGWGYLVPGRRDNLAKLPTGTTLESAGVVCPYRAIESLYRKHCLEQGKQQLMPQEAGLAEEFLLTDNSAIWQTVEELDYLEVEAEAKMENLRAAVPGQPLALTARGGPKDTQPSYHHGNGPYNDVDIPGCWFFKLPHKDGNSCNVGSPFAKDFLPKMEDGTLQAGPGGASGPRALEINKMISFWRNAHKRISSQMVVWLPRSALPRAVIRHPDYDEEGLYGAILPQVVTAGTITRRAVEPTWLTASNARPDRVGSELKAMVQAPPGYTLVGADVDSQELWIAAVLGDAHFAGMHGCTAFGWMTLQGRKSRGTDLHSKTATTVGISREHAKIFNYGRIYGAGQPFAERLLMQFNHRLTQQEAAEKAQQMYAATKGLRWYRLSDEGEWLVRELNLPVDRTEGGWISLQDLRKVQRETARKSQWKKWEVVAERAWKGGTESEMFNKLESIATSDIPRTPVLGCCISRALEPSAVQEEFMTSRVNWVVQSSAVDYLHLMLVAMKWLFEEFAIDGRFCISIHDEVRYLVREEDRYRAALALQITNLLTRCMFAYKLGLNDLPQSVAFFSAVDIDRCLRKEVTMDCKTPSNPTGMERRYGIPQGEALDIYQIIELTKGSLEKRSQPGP

[2] = molecular target: human DNA polymerase β (Homo sapiens, UniProt P06746); assay: Inhibition of human DNA polymerase β; type: biochemical
[3] = tested on: CVB-2; assay: organism not typed; type: cell-based, Coxsackie B-2 virus
[4] = tested on: MT-4 human T-lymphocyte cells
[5] = tested on: REO-1; assay: microbe, parasite or virus in culture; type: cell-based, double-stranded RNA Reovirus
[6] = tested on: YFV; type: cell-based, yellow fever virus; details: Tables 30b, 30k-30o
[7] = tested on: Sb-1; assay: organism not typed; type: cell-based, Sabin type 1 poliomyelitis virus
[8] = tested on: DENV 2; assay: microbe, parasite or virus in culture; type: cell-based, dengue virus; details: read-out: DENV 2
[9] = tested on: BVDV; type: cell-based, bovine viral diarrhea virus
[10] = tested on: WNV; assay: microbe, parasite or virus in culture; type: cell-based, West Nile virus; details: read-out: WNV
[11] = tested on: CVA-9; type: cell-based, Coxsackievirus A-9
[12] = tested on: BHK
[13] = tested on: CVB-3; type: cell-based, Coxsackievirus B-3
[14] = tested on: Vero 76, African green monkey kidney cells
[15] = tested on: CVB-4; type: cell-based, Coxsackievirus B-4
[16] = tested on: HepG2 cells; assay: Incorporation of drug into cellular RNA and DNA; details: 10 μM [3H] drug, 30 hours
[17] = tested on: HepG2 cells; assay: Transmission electron microscopy of mitochondrial ultrastructure; details: 10 μM, 14 days
[18] = tested on: HepG2 cells; assay: Mitochondrial DNA content; type: cell-based, human; details: for mtDNA/nuclear DNA (% of Control): 1 μM
Description: To assess the potential of mCyd to produce mitochondrial toxicity, several in vitro studies were conducted using the human hepatoma cell lines HepG2 or Huh7.
The significance of this finding is unclear, particularly since mCyd is unlikely to attain a plasma concentration of 50 μM in the clinic. For comparison, lactic acid production increases by 100% over control cells in cells treated with 10 μM FIAU (Cui L, Yoon, et al. J. Clin. Invest. 1995; 95:555-563).

| SMILES | pEC50 ([3]; read-out: CVB-2) | CC50 [4] [µM] | pEC50 ([5]; read-out: REO) | pEC50 [6] | pEC50 ([7]; read-out: Sb-1) | pEC50 [8] | pEC50 [9] | pEC50 [10] | pEC50 ([3]; read-out: EC50 CVB-2) | pEC50 [11] | CC50 [12] [µM] | pEC50 ([5]; read-out: EC50 REO-1) | pEC50 [13] | CC50 [14] [µM] | pEC50 [15] | other results |
| --- | --- | --- | --- | --- | --- | --- | --- | --- | --- | --- | --- | --- | --- | --- | --- | --- |
| C[C@@]1(O)[C@H](O)[C@@H](COP(=O)(O)OP(=O)(O)OP(=O)(O)O)O[C@H]1n1ccc(N)nc1=O [mCyd-TP, 2′-C-methyl-cytidine-5′-triphosphate] |  |  |  |  |  |  |  |  |  |  |  |  |  |  |  | pIC50 [1]: ≤ 3.03; pIC50 [2]: ≤ 3.05 |
| C[C@]1(CO)O[C@@H](n2ccc(=S)[nH]c2=O)[C@H](O)[C@@H]1O |  |  |  |  |  |  |  |  |  |  |  |  |  |  |  | melting point: 65 to 70 °C (dec.) |
| C[C@@]1(O)[C@H](O)[C@@H](CO)O[C@H]1n1cnc2c(NC3CC3)nc(N)nc21 [Compound K, β-D-2′-C-methyl-2-amino-6-cyclopropyl adenosine] | < 4.00 | > 100 | 5.02 | 5.00 | < 4.00 | 5.31 | 4.74 | 5.46 |  |  |  |  |  |  |  |  |
| C[C@]1(CO)O[C@@H](n2cnc3c(N)ncnc32)[C@H](O)[C@@H]1O |  |  |  |  |  |  |  |  |  |  |  |  |  |  |  | melting point: 96 to 97 °C (dec.) |
| Cc1cn([C@@H]2O[C@](C)(CO)[C@@H](O)[C@H]2O)c(=O)[nH]c1=O |  |  |  |  |  |  |  |  |  |  |  |  |  |  |  | melting point: 258 to 260 °C (dec.) |
| C#C[C@@]1(O)[C@H](O)[C@@H](CO)O[C@H]1n1ccc(N)nc1=O [Compound I, β-D-2′-C-ethynyl-cytidine] |  | ≥ 100 |  |  |  |  |  |  | 4.48 | 4.23 | > 100 | < 4.00 | 4.48 | > 100 | 4.62 | pEC50 ([7]; read-out: EC50 Sb-1): 4.59 |
| Cc1cn([C@H]2C[C@H](N=[N+]=[N-])[C@@H](CO)O2)c(=O)[nH]c1=O [ZDV, zidovudine] |  |  |  |  |  |  |  |  |  |  |  |  |  |  |  | Incorporated drug amount, DNA [16]: 0.103 pmole/μg DNA and 0.103 ± 0.0123^a pmole/μg DNA; Incorporated drug amount, RNA [16]: 0.0009 pmole/μg RNA and 0.0009 ± 0.0003^a pmole/μg RNA |
| C[C@@]1(O)[C@H](O)[C@@H](CO)O[C@H]1n1cnc2c(Cl)nc(N)nc21 [Compound D, β-D-2′-C-methyl-6-chloro-guanosine] | 4.60 | > 100 | 6.40 | 6.00 | 4.30 | 6.15 | 6.15 | 6.52 | 4.60 | 4.43 | 30 | 6.40 | 4.68 | > 100 | 4.60 | pEC50 ([7]; read-out: EC50 Sb-1): 4.30 |
| CC(C)[C@H](N)C(=O)OC[C@H]1O[C@@H](n2cnc3c(=O)[nH]c(N)nc32)[C@](C)(O)[C@@H]1OC(=O)[C@@H](N)C(C)C [Compound E, 3′,5′-di-O-valinyl ester of β-D-2′-C-methyl-guanosine] | 4.48 | > 100 | 5.68 | 6.00 | 4.26 | 5.85 | 5.31 | 6.00 | 4.48 | 4.40 | 100 | 5.70 | 4.52 | > 100 | 4.46 |  |
| C#C[C@@]1(O)[C@H](O)[C@@H](CO)O[C@H]1n1cnc2c(N)ncnc21 [Compound H, β-D-2′-C-ethynyl-adenosine] | 5.92 | 4.6 | 5.22 | 5.70 | 6.15 | 5.96 | 6.40 | 6.00 | 5.82 | 5.60 | 15 | 5.22 | 6.00 | 60 | 5.70 |  |
| Nc1ccn([C@H]2CC[C@@H](CO)O2)c(=O)n1 [ddC, zalcitabine, reference compound] |  |  |  |  |  |  |  |  |  |  |  |  |  |  |  | Electron Microscopy, Lipid Droplet Form. [17]: Positive; Electron Microscopy, Mito. Morphol. [17]: Loss of Cristae; mtDNA/nuclear DNA (% of Control) ([18]; 6 day treatment): 44.3 ± 9.3 % of Control; mtDNA/nuclear DNA (% of Control) ([18]; 14 day treatment): 19.6 ± 8.2 % of Control; reduction of mitochondrial DNA content ([18]; 6 days): 56%; reduction of mitochondrial DNA content ([18]; 14 days): 80%; Incorporated drug amount, DNA [16]: 0.0055 pmole/μg DNA and 0.0055^b pmole/μg DNA; Incorporated drug amount, RNA [16]: 0.0013 pmole/μg RNA and 0.0013^b pmole/μg RNA |
| C[C@@]1(O)[C@H](O)[C@@H](CO)O[C@H]1n1cnc2c(N)nc(N)nc21 [Compound B, β-D-2′-C-methyl-2-amino adenosine] | 4.12 | > 100 | 5.70 | 6.10 | 4.05 | 6.15 | 5.68 | 6.52 | 4.12 | 4.41 | 50 | 5.70 | 4.64 | > 100 | 4.49 | pEC50 ([7]; read-out: EC50 Sb-1): 4.05 |
| Nc1nc(N)c2ncn([C@@H]3O[C@H](CO)[C@@H](O)[C@H]3O)c2n1 [Compound J, β-D-2-amino-adenosine] |  | 50 |  |  |  |  |  |  | 4.28 | 4.28 | > 100 | < 4.00 | 4.26 | > 100 | 4.30 | pEC50 ([7]; read-out: EC50 Sb-1): 4.40 |
| C[C@@]1(O)[C@H](O)[C@@H](CO)O[C@H]1n1cnc2c(N)ncnc21 [Compound A, β-D-2′-C-methyl-adenosine] | 5.15 | 4 | < 4.15 | 5.57 |  | 5.57 | 5.92 | 5.44 | 5.00 | 4.92 | 70 | < 4.15 | 4.85 | 80 | 4.89 |  |
| C[C@@]1(O)[C@H](O)[C@@H](CO)O[C@H]1n1cnc2c(=O)[nH]c(N)nc21 [Compound C, β-D-2′-C-methyl-guanosine] | 4.54 | > 100 | 5.70 | 5.92 | 4.30 | 5.85 | 5.46 | 6.22 | 4.52 | 4.34 | 100 | 5.70 | 4.66 | > 100 | 4.92 |  |
| CC(C(=O)c1ccccc1)n1c(N)nc2c(ncn2[C@@H]2O[C@H](CO)[C@@H](O)[C@@]2(C)O)c1=O (stereo partly drawn) [Compound L, β-D-2′-C-methyl-1-(methyl-2-oxo-2-phenylethyl)guanosine] | < 4.00 | > 100 | 4.92 | 5.22 | < 4.00 | 5.36 | 4.92 | 5.52 |  |  |  |  |  |  |  |  |

Source: patent US7625875B2 (priority 2002, dated 2009)
